# Test results reported in US10780094B2, “Use of carbonic anhydrase inhibitors for treatment of neurological and psychiatric disorders” (New York University, priority 2016, dated 2020).
# Legend:
# [1] = tested on: mitochondrial CA; conditions: reference (16); cited from earlier work
# [2] = references (44, 45); cited from earlier work
# [3] = tested on: D3 cerebral microvascular endothelial cells; experiment: TMRM assay of mitochondrial membrane potential (ΔΨ); format: cell-based, human; conditions: 40 μM FCCP
# Protocol: (§1) Briefly, cells were plated on 25 mm optical borosilicate poly-L-lysine-coated sterile glass covers (ThermoFisher, Waltham, Mass., US) at a 70% confluence. The day after, cells were washed twice with HBSS and charged with 600 nM TMRM on HBSS. Cells were then incubated for 20 min in the incubator, at 37° C. and washed again with HBSS. After that, the medium was replaced by HBSS containing 150 nM of tetramethylrhodamine methyl ester (TMRM), in order to maintain the equilibrium distribution of the fluorophore. Cells were then mounted on Sykes-Moores chambers (BellCo, Vineland, N.J., US) and treated with the different drugs and/or peptides. An image was taken at minute 0 and at minute 45, after adding the drugs and/or peptides. In this experiment, the peptide was pre-aggregated as above before adding it to the cells.
# [4] = tested on: SH-SY5Y neuronal cells; experiment: as above; format: cell-based, human; conditions: 40 μM FCCP
# Protocol: as §1
# [5] = tested on: SH-SY5Y cells; experiment: Mitochondrial and cytoplasmic calcium assay (Rhod-2 AM, Fluo-4 AM); format: cell-based, human; conditions: Ionomycin 5 μM at the end of the experiments
# Protocol: (§2) This assay was performed as published in [60]. Briefly, cells were plated on 25 mm optical borosilicate poly-L-lysine-coated sterile glass covers, (ThermoFisher, Waltham, Mass., US) at a 70% confluence. 24 hours later, cells were loaded with 5 μM Rhod-2 AM or 2.5 μM Fluo-4 AM on HBSS for 45 minutes. Then, cells were washed twice with HBSS and incubated for another additional 15 minutes on fresh HBSS, without Rhod-2 AM or Fluo-4 AM. After that, HBSS was replaced again by fresh HBSS, glasses were mounted on microscopy chambers and experiments were conducted, after adding the pre-aggregated peptides and/or the drugs. Cells were mounted on Sykes-Moores chambers (BellCo, Vineland, N.J., US) and imaged every 15 seconds for 45 min, at a 20× magnification, using a Nikon fluorescent microscope (Chiyoda, Tokyo, Japan). Images were processed using NIS-Elements and ImageJ software. Due to the rapidity of this experiment, the peptide was pre-aggregated as described above to obtain oligomers before being added to the cells.
# [6] = tested on: D3 cells; experiment: as above; format: cell-based, human; conditions: Ionomycin 5 μM at the end of the experiments
# Protocol: as §2
# [7] = tested on: SH-SY5Y cells; experiment: ATP measurement (CellTiter-Glo); format: cell-based, human; conditions: oligomycin 5 μM control; p<0.0001
# Protocol: (§3) Steady state levels of ATP were estimated using the Cell Titter-Glo, according to manufacturer's instructions. Briefly, 5×10^3 cells per well of both D3 and SHSY cells were plated on 96-wells plates. The day after, cells were treated with either 10 μM Q22 or 50 μM Ab42 peptides, respectively. Peptides were added alone or in combination with increasing concentrations of MTZ (100 and 300 μM) or AZT (30 and 300 μM). Controls were treated with either DMSO or 5 μM oligomycin. After 3 hours of treatment, the plates containing the cells were equilibrated to room temperature for 30 minutes prior to addition of the luciferin/luciferase/cell lysis mixture. Absolute luminescence from quadruplicate experiments was recorded using a SpectraMax plate reader (Molecular Devices, Sunnyvalem Calif., US).
# [8] = tested on: D3 cells; experiment: ATP measurement (CellTiter-Glo); format: cell-based, human
# Protocol: as §3
# [9] = tested on: caspase 9 in SH-SY5Y neuronal cells; experiment: Caspase-Glo 9 activity after Aβ challenge; format: cell-based, human; conditions: 10 μM Aβ42; 24 hours; no drug
# Protocol: (§4) Caspase 9 and caspase 3/7 activation was measured by luminescent assays (Caspase-Glo 9 and caspase-Glo 3/7, Promega, Madison, Wis.), in cells treated with the Aβ peptides in DMEM without FBS. Briefly, 10,000 cells/well were plated in 96 wells plates and incubated for 24 hours with the freshly solubilized Aβ peptides. Caspase-Glo reagent was added to the cell cultures resulting in cell lysis, followed by caspase cleavage of the substrate and generation of a luminescent signal produced by the luciferase reaction. After 40 minutes incubation, the amount of caspase activity was evaluated in a plate-reading luminometer (Synergy HT Multi-Mode Microplate Reader, Biotek, Winooski, Vt.) as described in (Fossati et al., 2012b). To inhibit non-specific background activity, the proteasome inhibitor MG-132 was added to the Caspase-Glo reagent before the experiment as indicated by the manufacturer. In all cases results are expressed as fold-change compared to untreated control cells.
# Cells were plated at a confluence of 10.000 cells per well in 96-wells microplate luminescence microtiter (ThermoFisher, Waltham, Mass., US). The day after, cells were treated with the peptides and/or drugs for the experimental times. After that, caspase-Glo 9 assay was performed, following the protocol provided from the manufacturer. Luminescence was measured using a FlexStation 3 Multi-Mode Microplate Reader (Molecular devices, Sunnyvalem Calif., US).
# [10] = tested on: caspase 9 in glial cells; experiment: Caspase-Glo 9 activity after Aβ challenge; format: cell-based, human; conditions: 10 μM Aβ42; 24 hours; no drug
# Protocol: as §4
compound,measurement,setting,value
"CCOc1ccc2nc(S(N)(=O)=O)sc2c1 [ETZ, ethoxzolamide]",activity on mitochondrial CA,[1],high activity
same,ROS formation and cell death induced by high glucose,[2],inhibit ROS formation and cell death
"N#CC(C#N)=NNc1ccc(OC(F)(F)F)cc1 [FCCP, p-trifluoromethoxyphenylhydrazone]",mitochondrial depolarization after treatment with drugs and peptides,[3],further depolarized
same,mitochondrial depolarization after treatment with drugs and peptides,[4],further depolarized
C[C@H](CCC(=O)O)C[C@H](C)C[C@H](C)C(=O)/C=C(\O)[C@H](C)C[C@H](C)C/C=C/[C@@H](C)[C@@H](O)[C@@H](C)[C@@H](O)C[C@@H]1CC[C@@](C)([C@H]2CC[C@@](C)([C@@H](C)O)O2)O1 [Ionomycin],mitochondrial and cytoplasmic calcium levels,[5],increase in mitochondrial and cytoplasmic calcium levels
same,mitochondrial and cytoplasmic calcium levels,[6],increase in mitochondrial and cytoplasmic calcium levels
CC[C@H]1/C=C/C=C/C[C@@H](C)[C@H](O)[C@@](C)(O)C(=O)[C@@H](C)[C@H](O)[C@@H](C)C(=O)[C@@H](C)[C@H](O)[C@@H](C)/C=C/C(=O)O[C@@H]2[C@H](C)[C@H](CC1)O[C@]1(CC[C@H](C)[C@H](C[C@@H](C)O)O1)[C@H]2C [oligomycin],decrease in ATP levels,[7],34%
same,increase in ATP luminescence,"[8]; oligomycin 5 μM, p=0.0002",32.4%
"Aβ40-Q22: Synthetic Aβ40, the Dutch genetic variant, containing the E22Q substitution",increase in steady state ATP levels,"[8]; peptide alone, p=0.001",21.6%
"Aβ42: Synthetic homologue of the amyloid subunit Aβ42, used to challenge cells",caspase 9 activation increase compared to control cells,[9],about 1.5 times
same,caspase 9 activation increase compared to control cells,[10],about 1.5 times
